In series [1] the target is T1, STAT1 (Homo sapiens, UniProt P42224).
T1 construct: full-length STAT1 (Uniprot #P42224-1) was expressed in E. coli; His tag (pEXP-NHis vector) (N); made in house; host or cells: E. coli T7 Express
T1 sequence (P42224 1-750): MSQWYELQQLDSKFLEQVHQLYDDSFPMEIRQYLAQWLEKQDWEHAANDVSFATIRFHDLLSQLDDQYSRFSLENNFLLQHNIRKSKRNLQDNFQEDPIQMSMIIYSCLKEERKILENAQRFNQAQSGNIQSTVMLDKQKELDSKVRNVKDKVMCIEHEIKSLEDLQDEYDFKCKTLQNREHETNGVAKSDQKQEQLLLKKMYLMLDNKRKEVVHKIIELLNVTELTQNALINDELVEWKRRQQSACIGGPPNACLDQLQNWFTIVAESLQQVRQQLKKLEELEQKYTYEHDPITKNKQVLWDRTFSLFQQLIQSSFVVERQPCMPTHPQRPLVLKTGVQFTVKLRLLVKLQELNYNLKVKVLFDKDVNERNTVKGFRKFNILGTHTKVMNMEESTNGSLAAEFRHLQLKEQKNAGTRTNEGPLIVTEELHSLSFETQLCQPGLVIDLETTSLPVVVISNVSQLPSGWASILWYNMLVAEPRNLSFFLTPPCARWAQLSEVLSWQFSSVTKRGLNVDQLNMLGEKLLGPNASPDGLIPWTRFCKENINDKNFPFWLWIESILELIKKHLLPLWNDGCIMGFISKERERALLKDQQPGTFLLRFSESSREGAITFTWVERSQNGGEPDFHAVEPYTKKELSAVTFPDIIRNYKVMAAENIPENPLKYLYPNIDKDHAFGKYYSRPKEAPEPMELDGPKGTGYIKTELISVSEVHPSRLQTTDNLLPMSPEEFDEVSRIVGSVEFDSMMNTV
The experiment in a line: Isothermal titration calorimetry (ITC) of peptide binding to STAT1. The settings on record: average of 2–3 technical replicates, read-out: KD (ITC, summary Fig 2B). As for the experimental part:
To determine affinities and thermodynamic profiles of binding, we performed isothermal titration calorimetry (ITC) experiments for peptides 1, 2, 3, 4, 7, and 8 (Figures A,B and S1,S2, Table S1). […] The experiments were repeated in two different buffer systems, TBST (50 mM Tris pH 8.0, 300 mM NaCl, 0.01% Tween-20) and PBST ([…], 150 mM NaCl, 0.01% Tween-20), to account for possible buffer protonation enthalpy artifacts. […]
Isothermal titration calorimetry (ITC)
ITC experiments were performed using a PEAQ ITC instrument (Malvern Panalytical) in either TBST (50 mM Tris pH 8.0, 300 mM NaCl, 0.5 mM TCEP, 0.01% Tween -20) or PBST (10 mM sodium phosphate pH 7.4, 150 mM NaCl, 0.01% Tween -20) as reaction buffers. STAT1 protein was buffer -exchanged into reaction buffer supplemented with 2% DMSO on a NAP -5 deslating column (Cytiv a #17085301) and its concentration was adjusted to 10 or 20 μM.
Peptides were diluted in reaction buffer from DMSO stocks to a matching 2% DMSO concentration. Peptide concentrations were adjusted to approximately 100-200 μM. ITC experiments were performed with STAT1 in the cell and peptides in the syringe at 25°C, with 750 RPM stirring, DP = 4 μcal/sec. 18 injections of 2 μl were performed over a 50 min titration.
Thermogram integra tion and isotherm fitting were performed using the PEAQ ITC analysis software (Malvern Panalytical ). Isotherms were fitted using a 1:1 binding model. Due to challenges in determining peptide concentrations with high accuracy , protein concentrations and stoichiometry (N=1.0) were kept constant during isotherm fitting, whereas peptide concentrations were allowed to vary. Fixing a single reactant concentration during fitting is acceptable given the sufficiently high C -values and isotherm curvature observed in the […]
Offset subtraction was implemented to remove injection heats.
Background: ITC needs no label: the signal is the heat of the interaction.

Series [2] addresses T1, STAT1. In words: Fluorescence polarization competition assay with fluorescein-labelled pIFNGR1 docking site peptide probe. It counts as binding. Conditions: 10 nM fluorescein pIFNGR1 probe, STAT1 1.5 μM, 20 mM Tris pH 8.0, 300 mM NaCl, 0.1% Tween-20, 0.5 mM TCEP, 2.5% DMSO, room temperature; four parameter logistic fit; read-out: IC50 (FP competition, pIFNGR1 probe displacement). For orientation: In fluorescence polarisation assays a small probe gives low polarisation when free and higher when bound to something large.

For series [3], the target named is T1, STAT1. In words: Grating-coupled interferometry (GCI) waveRAPID kinetics, immobilised full-length STAT1. The format is binding. Conditions: for kon at 0.5 µM / kd: analyte 0.5 µM; for kon at 0.5 µM: read-out: ka; for Kd: 20 mM HEPES pH 7.5, 300 mM NaCl, 0.01% Tween-20, 1:1 kinetic model, average of 2–4 technical replicates ± SD, SD. The text has this:
Understanding the molecular determinants of kinetic rate constants of binding (k a, k d) can aid the design of pharmacological probes with longer target engagement, which is beneficial for drug efficacy and decreased toxicity. , We characterized the binding kinetics of 018-derived macrocycles by using grating-coupled interferometry (GCI). We used waveRAPID, a regeneration-free kinetic binding assay that applies sequential analyte pulses of increasing duration onto a GCI biosensor surface with an immobilized target (Figures A, and S3,S4, Table S2).
(§1) Grating coupled interferometry (GCI)
(§2) GCI experiments were performed on a Creoptix WaveDELTA instrument (Malvern Panalytical). Full-length STAT1 or STAT3 were immobilised on a 4PCH chip (Malvern Panalytical #4PCH-03) to a density 2000-8000 pg/mm2 using EDC/NHS activation followed by amine coupling. Briefly, proteins (500 nM) were applied onto an activated chip in 10 mM MES pH 6.5, 20 mM NaCl, after which the chip surface was passivated with 1M ethanolamine, pH 8.0.
(§3) The kinetic measurements were perfor med using 20 mM HEPES pH 7.5, 300 mM NaCl, 0.01% Tween-20, 0.0005% DMSO as running buffer. Peptides were tested at 0.5 or 10 μM concentration using the waveRAPID kinetics experiment with the tight binder or intermediate binder mode, respectively.[4] Sensorgrams were fitted in the waveControl software (Malven Panalytical) using the 1:1 kinetic model. […]

The target in the next series is T2, STAT3 (Homo sapiens, UniProt P40763).
T2 construct: STAT3: the gene encoding full-length STAT3 was codon optimised for expression in; MBP (pEXP-MBP vector) (cleaved yes); His tag (IMAC capture, removed with the fusion by TEV and reverse IMAC) (cleaved yes); made in house; host or cells: E. coli T7 Express
T2 sequence (P40763 whole entry, species assumed, the tested form may be a part): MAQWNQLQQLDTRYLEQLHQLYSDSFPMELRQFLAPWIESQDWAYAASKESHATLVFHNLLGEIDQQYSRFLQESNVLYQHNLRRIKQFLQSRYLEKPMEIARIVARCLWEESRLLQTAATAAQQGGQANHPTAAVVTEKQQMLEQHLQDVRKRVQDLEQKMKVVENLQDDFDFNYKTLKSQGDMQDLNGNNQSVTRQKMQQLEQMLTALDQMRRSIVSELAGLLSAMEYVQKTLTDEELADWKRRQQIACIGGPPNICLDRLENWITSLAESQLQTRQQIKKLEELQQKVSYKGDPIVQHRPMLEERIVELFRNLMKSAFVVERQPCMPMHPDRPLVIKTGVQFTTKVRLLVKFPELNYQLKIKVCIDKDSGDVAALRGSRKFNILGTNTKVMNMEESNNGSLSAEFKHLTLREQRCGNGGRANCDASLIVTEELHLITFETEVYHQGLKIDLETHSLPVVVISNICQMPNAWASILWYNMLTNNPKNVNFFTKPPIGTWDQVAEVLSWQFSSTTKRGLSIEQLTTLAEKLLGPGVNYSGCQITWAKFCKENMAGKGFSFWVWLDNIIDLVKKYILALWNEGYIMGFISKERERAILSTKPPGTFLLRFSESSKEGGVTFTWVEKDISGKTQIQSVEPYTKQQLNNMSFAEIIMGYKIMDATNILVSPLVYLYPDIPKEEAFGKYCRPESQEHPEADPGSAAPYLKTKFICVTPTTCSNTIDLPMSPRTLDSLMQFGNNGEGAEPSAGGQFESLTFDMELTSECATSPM
The experiment in a line: biochemical. The settings on record: for Kd: full-length STAT3 on 4PCH chip, average of technical replicates ± SD (Fig 3E), SD, read-out: STAT3 KD (GCI waveRAPID); for kon: read-out: ka; for KD: analyte 10 µM (1, 3, 5) or 0.5 µM (4, 6), n.b. – no binding observed. The format is binding. As for the experimental part: In such PPIs, the bulk of the binding energy contribution typically stems from backbone interactions, whereas binding specificity is fine-tuned by side-chain contacts. […] We evaluated the binding kinetics of peptides to full-length STAT3 using GCI.
as §1, §2, §3
GCI sensorgrams depicting RAPID kinetics measurements and fitted kinetic models for peptide binding to full-length STAT3 immobilised on a polycarboxylate hydrogel chip (4PCH). Peptides were applied at 0.5 or 10 μM concentration using the medium or tight binders pulse sequence. The peptides that show negligible Rmax values at 10 μM analyte concentration were classified as non-binding.
(1 picture or pasted object on this page, not shown here)

Series [4] is described as follows: Solubility as required for ITC titration. The settings on record: ITC needs approximately 100-200 μM peptide in reaction buffer with 2% DMSO. The format is physicochemical.
The target in series [5] is Peptide 4 (bicyclic: head-to-tail plus o-xylyl C15/C26 cross-link) residue 15 to Cys (native residue not given); K26C; both S-alkylated by the o-xylyl bridge. The experiment in a line: isothermal titration calorimetry (ITC). The settings on record: pH 8.0; 300 mM NaCl; 50 mM Tris pH 8.0 (TBST).
Series [6] has as its target Peptide 2 (head-to-tail monocyclic 018 11-30) none (wild-type side chains; added beta-Ala-beta-Ala linker). In words: isothermal titration calorimetry (ITC). The settings on record: pH 8.0; 300 mM NaCl; 50 mM Tris pH 8.0 (TBST).
The mark [7] stands for this setting: replicate 1 (first listed run, Table S2).
The mark [8] stands for this setting: replicate 2 (second listed run, Table S2).
Setting [9] is: replicate 3 (third listed run, Table S2).
[10] abbreviates: replicate 4 (fourth listed run, Table S2).

Read-outs that look alike come from different tables or passages of the source. *1 amine or outer side, *2 acyl side, *3 side chain or, on linkers, in order; H or OH if unused. Where a SMILES comes first, the peptide text is derived from it. Bridges are numbered along the chain shown (N, C = ends). [ ]: non-standard residue; d: D form. oXylylene = c1ccc(C[*:2])c(C[*:1])c1; βAla = NCCC(=O)O

Consider `CC[C@H](C)[C@@H]1NC(=O)[C@@H]2CSCc3ccccc3CSC[C@H](NC(=O)CNC(=O)[C@H](CCCCN)NC(=O)[C@H](CC(N)=O)NC(=O)[C@H](CO)NC(=O)CNC(=O)[C@H](CC(=O)O)NC(=O)[C@H](Cc3c[nH]cn3)NC(=O)CNC(=O)[C@H](Cc3c[nH]cn3)NC1=O)C(=O)N[C@@H](CCCCN)C(=O)N[C@@H]([C@@H](C)O)C(=O)N[C@@H](Cc1ccc(O)cc1)C(=O)N[C@@H]([C@@H](C)O)C(=O)NCCC(=O)NCCC(=O)N[C@@H](CCSC)C(=O)N[C@@H](Cc1c[nH]c3ccccc13)C(=O)N[C@@H](CO)C(=O)N[C@@H](C(C)C)C(=O)N2` [Peptide 4] (cyclo(CIHGHDGSNKGCKTYT[βAla][βAla]MWSV); linker 1-12 via oXylylene), for which the Kd (in general, the concentration at which binding is half-saturated) on STAT1 [1] (PBST pH 7.4 (NaPi, 150 mM NaCl, 0.01% Tween-20)) came to 14 nM; on STAT1 [1] (TBST pH 8.0) it was 24 nM; on STAT3, 248 ± 10.6 nM. Also, the half-maximal inhibitory concentration (IC50) (as a rule, the point on the concentration scale where inhibition reaches its midpoint) at STAT1 [2] was 1100 nM. Further, the kon at 0.5 µM on STAT1 [3] (setting [7]) was 658000 M⁻¹ s⁻¹; at STAT1 [3] (setting [8]) it was 594000 M⁻¹ s⁻¹; at STAT1 [3] (setting [9]), 277000 M⁻¹ s⁻¹; on STAT1 [3] (setting [10]) it was 865000 M⁻¹ s⁻¹. At STAT3, this compound came in with a ka of 239000 M⁻¹ s⁻¹. In addition, the kon at STAT3 amounted to 257000 M⁻¹ s⁻¹.
With `CC[C@H](C)[C@H](NC(=O)[C@H](Cc1ccccc1)NC(=O)[C@@H](NC(=O)[C@H](CS)NC(=O)[C@H](Cc1c[nH]c2ccccc12)NC(=O)[C@H](CCSC)NC(C)=O)C(C)C)C(=O)N[C@@H](Cc1c[nH]cn1)C(=O)NCC(=O)N[C@@H](Cc1c[nH]cn1)C(=O)N[C@@H](CC(=O)O)C(=O)NCC(=O)N[C@@H](CO)C(=O)N[C@@H](CC(N)=O)C(=O)N[C@@H](CCCCN)C(=O)NCC(=O)N[C@@H](CO)C(=O)N[C@@H](CCCCN)C(=O)N[C@@H](CS)C(=O)N[C@@H](Cc1ccc(O)cc1)C(=O)N[C@H](C(N)=O)[C@@H](C)O` [Peptide 5], the “solubility (for ITC titration)” value in series [4] is on record as “insufficient solubility”. The compound further returned a Kd on STAT1 [3] of 31.9 ± 4.3 nM. Moreover, the kd at STAT1 [3] (setting [7]) was determined as 0.0123 s⁻¹; at STAT1 [3] (setting [8]), 0.0132 s⁻¹. Moreover, the values for the kon at 0.5 µM at STAT1 [3] (setting [7]) and on STAT1 [3] (setting [8]) were 351000 M⁻¹ s⁻¹ and 457000 M⁻¹ s⁻¹, respectively. Further, the KD entry on STAT3 (setting [7]) and on STAT3 (setting [8]) was “n.b” throughout. For the same compound, the “STAT3 binding (GCI), in words” value on STAT3 (full-length STAT3, negligible Rmax at 10 μM classified as non-binding) is listed as “not detected”.
`CC[C@H](C)[C@@H]1NC(=O)[C@H](Cc2ccccc2)NC(=O)[C@H](C(C)C)NC(=O)[C@@H](NC(=O)[C@H](Cc2c[nH]c3ccccc23)NC(=O)[C@H](CCSC)NC(C)=O)CSCc2ccccc2CSC[C@@H](C(=O)N[C@@H](Cc2ccc(O)cc2)C(=O)N[C@H](C(N)=O)[C@@H](C)O)NC(=O)[C@H](CCCCN)NC(=O)[C@H](CO)NC(=O)CNC(=O)[C@H](CCCCN)NC(=O)[C@H](CC(N)=O)NC(=O)[C@H](CO)NC(=O)CNC(=O)[C@H](CC(=O)O)NC(=O)[C@H](Cc2c[nH]cn2)NC(=O)CNC(=O)[C@H](Cc2c[nH]cn2)NC1=O` [Peptide 6]: in series [4], the “solubility (for ITC titration)” value is “insufficient solubility”. Besides, the Kd at STAT1 [3] was 1.3 ± 1.1 nM; at STAT3, 196 ± 12 nM. Besides, the kon at 0.5 µM came to 377000 M⁻¹ s⁻¹ on STAT1 [3] (setting [7]), 304000 M⁻¹ s⁻¹ at STAT1 [3] (setting [8]), 186000 M⁻¹ s⁻¹ on STAT1 [3] (setting [9]) and 384000 M⁻¹ s⁻¹ on STAT1 [3] (setting [10]). The same compound gave a ka on STAT3 of 280000 M⁻¹ s⁻¹. In addition, the kon on STAT3 was 252000 M⁻¹ s⁻¹.
In the case of “STAT1 (signal transducer and activator of transcription 1), unphosphorylated not stated for the ITC sample”, the KD (in general, the concentration at which binding is half-saturated) amounted to 24 ± 15 nM in series [5] and 330 ± 20 nM in series [6].

Values taken from PMC12813973, “Consequences of Peptide Macrocyclization Revealed by Virus-Inspired β‑Hairpin Mimetics” (ACS Chemical Biology, 2025).
